Source: patent publication US20170334934A1, “Macrocyclic picolinamides as fungicides” (DOW AGROSCIENCES LLC, priority 2014, published 2017)
Read-outs that look alike come from different tables or passages of the source.

Assays:
[1] = system: Mycosphaerella graminicola; Anamorph: Zymoseptoria tritici; experiment: Fungicidal activity: Leaf Blotch of Wheat (SEPTTR), wheat seedlings; format: in vivo; conditions: for pest or weed control at 121.5 g/ha: Low Volume (121.5 g/H)
Protocol: Example A: Evaluation of Fungicidal Activity: Leaf Blotch of Wheat (Mycosphaerella graminicola; Anamorph: Zymoseptoria tritici; Bayer Code […]) Technical grades of materials were dissolved in acetone, which were then mixed with nine volumes of water containing 110 ppm Triton X-100. The fungicide solutions were applied onto wheat seedlings using an automated booth sprayer to run-off. All sprayed plants were allowed to air dry prior to further handling. All fungicides were evaluated using the aforementioned method for their activity vs. all target diseases, unless stated otherwise. Wheat leaf blotch and brown rust activity were also evaluated using track spray applications, in which case the fungicides were formulated as EC formulations, containing 0.1% Trycol 5941 in the spray solutions. Wheat plants (variety Yuma) were grown from seed in a greenhouse in 50% mineral soil/50% soil-less Metro mix until the first leaf was fully emerged, with 7-10 seedlings per pot. These plants were inoculated with an aqueous spore suspension of Zymoseptoria tritici either prior to or after fungicide treatments. After inoculation the plants were kept in 100% relative humidity (one day in a dark dew chamber followed by two to three days in a lighted dew chamber at 20° C.) to permit spores to germinate and infect the leaf. The plants were then transferred to a greenhouse set at 20° C. for disease to develop. When disease symptoms were fully expressed on the 1st leaves of untreated plants, infection levels were assessed on a scale of 0 to 100 percent disease severity. Percent disease control was calculated using the ratio of disease severity on treated plants relative to untreated plants.

Puccinia triticina = experiment: Fungicidal activity: Wheat Brown Rust (PUCCRT), wheat seedlings; format: in vivo; conditions: for pest or weed control at 121.5 g/ha: Low Volume (121.5 g/H); for pest or weed control at 100 µg/mL: High Volume (100 ppm)
Protocol: Technical grades of materials were dissolved in acetone, which were then mixed with nine volumes of water containing 110 ppm Triton X-100. The fungicide solutions were applied onto wheat seedlings using an automated booth sprayer to run-off. All sprayed plants were allowed to air dry prior to further handling. All fungicides were evaluated using the aforementioned method for their activity vs. all target diseases, unless stated otherwise. Wheat leaf blotch and brown rust activity were also evaluated using track spray applications, in which case the fungicides were formulated as EC formulations, containing 0.1% Trycol 5941 in the spray solutions. Wheat plants (variety Yuma) were grown from seed in a greenhouse in 50% mineral soil/50% soil-less Metro mix until the first leaf was fully emerged, with 7-10 seedlings per pot. These plants were inoculated with an aqueous spore suspension of Zymoseptoria tritici either prior to or after fungicide treatments. After inoculation the plants were kept in 100% relative humidity (one day in a dark dew chamber followed by two to three days in a lighted dew chamber at 20° C.) to permit spores to germinate and infect the leaf. The plants were then transferred to a greenhouse set at 20° C. for disease to develop. When disease symptoms were fully expressed on the 1st leaves of untreated plants, infection levels were assessed on a scale of 0 to 100 percent disease severity. Percent disease control was calculated using the ratio of disease severity on treated plants relative to untreated plants. Example B: Evaluation of Fungicidal Activity: Wheat Brown Rust (Puccinia triticina; Synonym: Puccinia recondita f. sp. tritici; Bayer Code PUCCRT) Wheat plants (variety Yuma) were grown from seed in a greenhouse in 50% mineral soil/50% soil-less Metro mix until the first leaf was fully emerged, with 7-10 seedlings per pot. These plants were inoculated with an aqueous spore suspension of Puccinia triticina either prior to or after fungicide treatments. After inoculation the plants were kept in a dark dew room at 22° C. with 100% relative humidity overnight to permit spores to germinate and infect the leaf. The plants were then transferred to a greenhouse set at 24° C. for disease to develop. Fungicide formulation, application and disease assessment followed the procedures as described in the Example A.

[2] = 24 h, 1 Day Protectant, wheat, read-out: SEPTTR disease control rating, 1DP
[3] = 72 h, 3 Day Curative, wheat, read-out: SEPTTR disease control rating, 3DC
[4] = 24 h, 1 Day Protectant, read-out: PUCCRT disease control rating, 1DP
[5] = 72 h, 3 Day Curative, read-out: PUCCRT disease control rating, 3DC
[6] = 24 h, High Volume (100 ppm), 1 Day Protectant, wheat, read-out: SEPTTR disease control rating, 1DP
[7] = 72 h, High Volume (100 ppm), 3 Day Curative, wheat, read-out: SEPTTR disease control rating, 3DC

Row | SMILES | pest or weed control at 121.5 g/ha [1, 2] | pest or weed control at 121.5 g/ha [1, 3] | pest or weed control at 121.5 g/ha (Puccinia triticina; [4]) | pest or weed control at 121.5 g/ha (Puccinia triticina; [5]) | other results
1 | C[C@@H]1OC(=O)[C@@H](NC(=O)OC(C)(C)C)CCOC[C@H]1OCCCC(F)(F)F [Compound 30] | – | – | – | – | melting point: 80 to 83 °C
2 | COc1ccnc(C(=O)N[C@H]2CCOC[C@@H](OCCCC(F)(F)F)[C@H](C)OC2=O)c1OC(C)=O [Compound 101] | < 70% | < 70% | > 70% | > 70% | melting point: 43 to 48 °C
3 | CC(C)CO[C@@H]1COCC[C@H](NC(=O)OC(C)(C)C)C(=O)O[C@H]1C [Compound 29] | – | – | – | – | melting point: 99 to 103 °C
4 | C[C@@H]1OC(=O)[C@@H](NC(=O)OC(C)(C)C)CCOC[C@H]1O [Compound 24, tert-butyl ((3R,4S,7S)-3-hydroxy-4-methyl-6-oxo-1,5-dioxonan-7-yl)carbamate] | – | – | – | – | melting point: 148 to 152 °C
5 | CCCO[C@H]1[C@H](C)OC(=O)[C@@H](NC(=O)c2nccc(OC)c2O)CCO[C@@H]1Cc1ccc(F)cc1 [Compound 56, N-((2R,3S,4S,7S)-2-(4-fluorobenzyl)-4-methyl-6-oxo-3-propoxy-1,5-dioxonan-7-yl)-3-hydroxy-4-methoxypicolinamide] | – | – | – | – | pest or weed control at 100 µg/mL ([1]; 24 h, read-out: SEPTTR disease control rating, 1DP): > 70%; pest or weed control at 100 µg/mL ([1]; 72 h, read-out: SEPTTR disease control rating, 3DC): > 70%; pest or weed control at 100 µg/mL (Puccinia triticina; [4]): > 70%; pest or weed control at 100 µg/mL (Puccinia triticina; [5]): > 70%
6 | CCCO[C@H]1[C@H](C)OC(=O)[C@@H](NC(=O)c2nccc(OC)c2OC(C)=O)CCO[C@@H]1Cc1ccc(F)cc1 [Compound 81, 2-(((2R,3S,4S,7S)-2-(4-fluorobenzyl)-4-methyl-6-oxo-3-propoxy-1,5-dioxonan-7-yl)carbamoyl)-4-methoxypyridin-3-yl acetate] | < 70% | < 70% | < 70% | < 70% | –
7 | COc1ccc(C[C@H]2OCC[C@H](NC(=O)c3nccc(OC)c3OCOC(C)=O)C(=O)O[C@@H](C)[C@@H]2OCC2CC2)cc1 [Compound 86] | > 70% | < 70% | > 70% | > 70% | –
8 | CC[C@H]1OCC[C@H](NC(=O)c2nccc(OC)c2OCOC(C)=O)C(=O)O[C@@H](C)[C@@H]1Oc1ccc(F)cc1 [Compound 91] | > 70% | > 70% | > 70% | > 70% | –
9 | COc1ccc(C[C@H]2OCC[C@H](NC(=O)c3nccc(OC)c3OCOC(C)=O)C(=O)O[C@@H](C)[C@@H]2Oc2ccccc2)cc1 [Compound 87] | > 70% | < 70% | > 70% | > 70% | –
10 | CC[C@H]1OCC[C@H](NC(=O)c2nccc(OC)c2OCOC(C)=O)C(=O)O[C@@H](C)[C@@H]1Oc1ccccc1 [Compound 90] | > 70% | > 70% | > 70% | > 70% | –
11 | COc1ccnc(C(=O)N[C@H]2CCOC[C@@H](OCc3ccccc3)[C@H](C)OC2=O)c1O [Compound 66] | – | – | – | – | pest or weed control at 100 µg/mL [1, 6]: < 70%; pest or weed control at 100 µg/mL [1, 7]: < 70%; pest or weed control at 100 µg/mL (Puccinia triticina; [4]): > 70%; pest or weed control at 100 µg/mL (Puccinia triticina; [5]): > 70%
12 | COc1ccnc(C(=O)N[C@H]2CCO[C@H](Cc3ccc(F)cc3)[C@@H](Oc3ccccc3)[C@H](C)OC2=O)c1OCOC(C)=O [Compound 73] | > 70% | > 70% | > 70% | > 70% | –
13 | COc1ccnc(C(=O)N[C@H]2CCOC[C@@H](Oc3ccccc3)[C@H](C)OC2=O)c1OC(C)=O [Compound 100] | < 70% | > 70% | > 70% | > 70% | –
14 | CC[C@H]1OCC[C@H](NC(=O)c2nccc(OC)c2O)C(=O)O[C@@H](C)[C@@H]1Oc1ccc(F)cc1 [Compound 64] | – | – | – | – | pest or weed control at 100 µg/mL [1, 6]: > 70%; pest or weed control at 100 µg/mL [1, 7]: > 70%; pest or weed control at 100 µg/mL (Puccinia triticina; [4]): > 70%; pest or weed control at 100 µg/mL (Puccinia triticina; [5]): > 70%
